# From article PMC5988656, “Phase I studies of AZD1208, a proviral integration Moloney virus kinase inhibitor in solid and haematological cancers” (British Journal of Cancer, 2018)
# Test system: patients with advanced solid tumours
# Test: Solid tumour dose-escalation study: safety and tolerability (AEs, DLTs)
# From the text: Conducted at two UK centres and one in Japan. Dose escalation followed a rolling six design.[14] Patients received a single dose on Day 1 during Cycle 0, followed by a 3-day washout period, after which multiple dosing was initiated. Cycle 1 was a 21-day period from the first dose of multiple dosing.
# The CTCAE (version 4.0) was utilised to grade all AE events.
# AEs were summarised by Medical Dictionary for Regulatory Activities (MedDRA) system organ class, MedDRA preferred term and CTCAE grade. Summary statistics of mean, median, standard deviation, minimum, maximum and number of observations were used.
smiles,measurement,setting,value
N[C@@H]1CCCN(c2c(/C=C3\SC(=O)NC3=O)cccc2-c2ccccc2)C1 [AZD1208],Abdominal pain (all-grade AE),"120 mg, n = 3",0 (0.0) n (%)
same,Anaemia (all-grade AE),"120 mg, n = 3",3 (100.0) n (%)
same,Constipation (all-grade AE),"120 mg, n = 3",0 (0.0) n (%)
same,Decreased appetite (all-grade AE),"120 mg, n = 3",1 (33.3) n (%)
same,Diarrhoea (all-grade AE),"120 mg, n = 3",2 (66.7) n (%)
same,Dry skin (all-grade AE),"120 mg, n = 3",0 (0.0) n (%)
same,Dyspnoea (all-grade AE),"120 mg, n = 3",0 (0.0) n (%)
same,Fatigue (all-grade AE),"120 mg, n = 3",0 (0.0) n (%)
same,GGT increased (all-grade AE),"120 mg, n = 3",0 (0.0) n (%)
same,Hyperglycaemia (all-grade AE),"120 mg, n = 3",1 (33.3) n (%)
same,Hypoalbuminaemia (all-grade AE),"120 mg, n = 3",1 (33.3) n (%)
same,Hypokalaemia (all-grade AE),"120 mg, n = 3",0 (0.0) n (%)
same,Hyponatraemia (all-grade AE),"120 mg, n = 3",0 (0.0) n (%)
same,Insomnia (all-grade AE),"120 mg, n = 3",0 (0.0) n (%)
same,Musculoskeletal chest pain (all-grade AE),"120 mg, n = 3",0 (0.0) n (%)
same,Nausea (all-grade AE),"120 mg, n = 3",1 (33.3) n (%)
same,Patients with any AE (all-grade AE),"120 mg, n = 3",3 (100.0) n (%)
same,Platelet count decreased (all-grade AE),"120 mg, n = 3",2 (66.7) n (%)
same,Pyrexia (all-grade AE),"120 mg, n = 3",0 (0.0) n (%)
same,Thrombocytopenia (all-grade AE),"120 mg, n = 3",0 (0.0) n (%)
same,Vomiting (all-grade AE),"120 mg, n = 3",0 (0.0) n (%)
same,White blood cell count decreased (all-grade AE),"120 mg, n = 3",2 (66.7) n (%)
same,Patients requiring dose interruptions because of AEs,240 mg,2 n
same,Patients with CTCAE grade ≥3 AEs causally related to AZD1208,"240 mg (anaemia, alanine transaminase increased, GGT increased)",3 n
same,Abdominal pain (all-grade AE),"240 mg, n = 7",3 (42.9) n (%)
same,Anaemia (all-grade AE),"240 mg, n = 7",4 (57.1) n (%)
same,Constipation (all-grade AE),"240 mg, n = 7",0 (0.0) n (%)
same,"DLT detail, action taken","240 mg, n = 7","GGT increased, drug interrupted"
same,Decreased appetite (all-grade AE),"240 mg, n = 7",3 (42.9) n (%)
same,Diarrhoea (all-grade AE),"240 mg, n = 7",5 (71.4) n (%)
same,Dry skin (all-grade AE),"240 mg, n = 7",3 (42.9) n (%)
same,Dyspnoea (all-grade AE),"240 mg, n = 7",1 (14.3) n (%)
same,Fatigue (all-grade AE),"240 mg, n = 7",2 (28.6) n (%)
same,GGT increased (all-grade AE),"240 mg, n = 7",2 (28.6) n (%)
same,Hyperglycaemia (all-grade AE),"240 mg, n = 7",0 (0.0) n (%)
same,Hypoalbuminaemia (all-grade AE),"240 mg, n = 7",2 (28.6) n (%)
same,Hypokalaemia (all-grade AE),"240 mg, n = 7",0 (0.0) n (%)
same,Hyponatraemia (all-grade AE),"240 mg, n = 7",0 (0.0) n (%)
same,Insomnia (all-grade AE),"240 mg, n = 7",1 (14.3) n (%)
same,Musculoskeletal chest pain (all-grade AE),"240 mg, n = 7",0 (0.0) n (%)
same,Nausea (all-grade AE),"240 mg, n = 7",6 (85.7) n (%)
same,Patients with any AE (all-grade AE),"240 mg, n = 7",7 (100.0) n (%)
same,Platelet count decreased (all-grade AE),"240 mg, n = 7",2 (28.6) n (%)
same,Pyrexia (all-grade AE),"240 mg, n = 7",1 (14.3) n (%)
same,Thrombocytopenia (all-grade AE),"240 mg, n = 7",0 (0.0) n (%)
same,Vomiting (all-grade AE),"240 mg, n = 7",6 (85.7) n (%)
same,White blood cell count decreased (all-grade AE),"240 mg, n = 7",3 (42.9) n (%)
same,Patients requiring dose interruptions because of AEs,360 mg,3 n
same,Patients with CTCAE grade ≥3 AEs causally related to AZD1208,360 mg (lymphocyte decreased),1 n
same,Abdominal pain (all-grade AE),"360 mg, n = 6",2 (33.3) n (%)
same,Anaemia (all-grade AE),"360 mg, n = 6",2 (33.3) n (%)
same,Constipation (all-grade AE),"360 mg, n = 6",3 (50.0) n (%)
same,Decreased appetite (all-grade AE),"360 mg, n = 6",2 (33.3) n (%)
same,Diarrhoea (all-grade AE),"360 mg, n = 6",5 (83.3) n (%)
same,Dry skin (all-grade AE),"360 mg, n = 6",1 (16.7) n (%)
same,Dyspnoea (all-grade AE),"360 mg, n = 6",2 (33.3) n (%)
same,Fatigue (all-grade AE),"360 mg, n = 6",3 (50.0) n (%)
same,GGT increased (all-grade AE),"360 mg, n = 6",1 (16.7) n (%)
same,Hyperglycaemia (all-grade AE),"360 mg, n = 6",1 (16.7) n (%)
same,Hypoalbuminaemia (all-grade AE),"360 mg, n = 6",2 (33.3) n (%)
same,Hypokalaemia (all-grade AE),"360 mg, n = 6",0 (0.0) n (%)
same,Hyponatraemia (all-grade AE),"360 mg, n = 6",1 (16.7) n (%)
same,Insomnia (all-grade AE),"360 mg, n = 6",1 (16.7) n (%)
same,Musculoskeletal chest pain (all-grade AE),"360 mg, n = 6",2 (33.3) n (%)
same,Nausea (all-grade AE),"360 mg, n = 6",3 (50.0) n (%)
same,Patients with any AE (all-grade AE),"360 mg, n = 6",6 (100.0) n (%)
same,Platelet count decreased (all-grade AE),"360 mg, n = 6",1 (16.7) n (%)
same,Pyrexia (all-grade AE),"360 mg, n = 6",3 (50.0) n (%)
same,Thrombocytopenia (all-grade AE),"360 mg, n = 6",2 (33.3) n (%)
same,Vomiting (all-grade AE),"360 mg, n = 6",1 (16.7) n (%)
same,White blood cell count decreased (all-grade AE),"360 mg, n = 6",1 (16.7) n (%)
same,Patients requiring dose interruptions because of AEs,540 mg,6 n
same,Patients with CTCAE grade ≥3 AEs causally related to AZD1208,"540 mg (vomiting, fatigue, lethargy)",2 n
same,Abdominal pain (all-grade AE),"540 mg, n = 7",2 (28.6) n (%)
same,Anaemia (all-grade AE),"540 mg, n = 7",4 (57.1) n (%)
same,Constipation (all-grade AE),"540 mg, n = 7",0 (0.0) n (%)
same,"DLT detail, action taken","540 mg, n = 7","Vomiting, drug permanently discontinued"
same,Decreased appetite (all-grade AE),"540 mg, n = 7",4 (57.1) n (%)
same,Diarrhoea (all-grade AE),"540 mg, n = 7",6 (85.7) n (%)
same,Dry skin (all-grade AE),"540 mg, n = 7",2 (28.6) n (%)
same,Dyspnoea (all-grade AE),"540 mg, n = 7",1 (14.3) n (%)
same,Fatigue (all-grade AE),"540 mg, n = 7",3 (42.9) n (%)
same,GGT increased (all-grade AE),"540 mg, n = 7",2 (28.6) n (%)
same,Hyperglycaemia (all-grade AE),"540 mg, n = 7",4 (57.1) n (%)
same,Hypoalbuminaemia (all-grade AE),"540 mg, n = 7",1 (14.3) n (%)
same,Hypokalaemia (all-grade AE),"540 mg, n = 7",2 (28.6) n (%)
same,Hyponatraemia (all-grade AE),"540 mg, n = 7",3 (42.9) n (%)
same,Insomnia (all-grade AE),"540 mg, n = 7",1 (14.3) n (%)
same,Musculoskeletal chest pain (all-grade AE),"540 mg, n = 7",1 (14.3) n (%)
same,Nausea (all-grade AE),"540 mg, n = 7",7 (100.0) n (%)
same,Patients with any AE (all-grade AE),"540 mg, n = 7",7 (100.0) n (%)
same,Platelet count decreased (all-grade AE),"540 mg, n = 7",2 (28.6) n (%)
same,Pyrexia (all-grade AE),"540 mg, n = 7",0 (0.0) n (%)
same,Thrombocytopenia (all-grade AE),"540 mg, n = 7",1 (14.3) n (%)
same,Vomiting (all-grade AE),"540 mg, n = 7",5 (71.4) n (%)
